Here are results for 74 compounds from article PMC6792352, “Limited Chemical Structural Diversity Found to Modulate Thyroid Hormone Receptor in the Tox21 Chemical Library” (Environmental Health Perspectives, 2019).

This data set in a line: in vitro. Conditions: rat, gh3-tre-luc cells.

Counter-ions that a name gives are not always drawn. A value given as a limit tells only on which side of the number the result lay.

In general, CC50 refers to the concentration giving 50% cytotoxicity. Lower therefore signals harm at low concentration. Turning to `O=c1oc2cc(O)ccc2c2oc3cc(O)ccc3c12` [Coumestrol], the cytotoxic concentration (CC50) at 24 h (AC50 (uM) modified / 1000) was greater than 90 µM.
Same read-out and setting: under `C=CCN=C=S` [Allyl isothiocyanate] stands greater than 90 µM; under `C1CCC(C(CC2CCCCN2)C2CCCCC2)CC1` (stereo not drawn) [Perhexiline maleate], 4.32 µM.
On the same count and under the same terms, under `O=c1ssc(Cl)c1Cl` [4,5-Dichloro-3H-1,2-dithiol-3-one] stands 48 µM.
Compound `CNC(=S)S` [Metam-sodium hydrate] had a CC50 at 24 h (AC50 (uM) modified / 1000, Tox21_110001=Tox21_300736, viability, 1 nM T3 present, 24 h) greater than 90 µM.
In turn, `C[C@H](CCC(=O)O)[C@H]1CC[C@H]2[C@@H]3C(=O)C[C@@H]4CC(=O)CC[C@]4(C)[C@H]3CC(=O)[C@]12C` [Dehydrocholic acid] yielded a CC50 at 24 h (AC50 (uM) modified / 1000) greater than 50 µM.
For `CCCO[Si](OCCC)(OCCC)OCCC` [Tetrapropyl orthosilicate], the half-maximal cytotoxic concentration (CC50) at 24 h (AC50 (uM) modified / 1000) was greater than 90 µM.
On the same count and under the same terms, under `CCCC(C)CC` (stereo not drawn) [3-Methylhexane] stands greater than 90 µM; under `O=C(O)C1=NN(c2ccc(S(=O)(=O)O)cc2)C(=O)C1` [Sodium 5-oxo-1-(4-sulfophenyl)-4,5-dihydro-1H-pyrazole-3-carboxylate], greater than 90 µM; under `Clc1nc(Cl)nc(Nc2ccccc2Cl)n1` [Anilazine], greater than 90 µM.
On the same count and under the same terms, under `NNc1nnc(Cc2ccncc2)c2ccccc12` [Picodralazine] stands greater than 50 µM; under `CCOc1ccc(S(=O)(=O)O)c2cccnc12` [Actinoquinol], greater than 50 µM.
On to `C=C(C)CCl` [3-Chloro-2-methylpropene], for which the CC50 at 24 h reads like this: (AC50 (uM) modified / 1000, Tox21_110001=Tox21_201640, viability, 1 nM T3 present, 24 h) greater than 90 µM; (AC50 (uM) modified / 1000, Tox21_110001=Tox21_303609, viability, 1 nM T3 present, 24 h) greater than 9 µM.
In the case of `Cn1nnc2c(C(N)=O)ncn2c1=O` [Temozolomide], the CC50 at 24 h (AC50 (uM) modified / 1000) is greater than 50 µM.
Compound `Cl[Si](Cl)(c1ccccc1)c1ccccc1` [Dichlorodiphenylsilane] had a CC50 at 24 h (AC50 (uM) modified / 1000) greater than 90 µM.
Take `O=S(=O)(O)C(F)(F)C(F)(F)C(F)(F)C(F)(F)F` [Potassium perfluorobutanesulfonate]: for the setting “AC50 (uM) modified / 1000, Tox21_110001=Tox21_400051, viability, 1 nM T3 present, 24 h”, the CC50 at 24 h was greater than 100 µM.
In turn, `O[C@@H]1CO[C@H]2[C@@H]1OC[C@@H]2O` [Isosorbide] registered a CC50 at 24 h (AC50 (uM) modified / 1000) greater than 50 µM.
Still for that read-out and setting: under `COc1cc2c(cc1OC)-c1cc3ccc(OC)c(OC)c3c[n+]1CC2` [Palmatine chloride hydrate] stands greater than 90 µM; under `CC(CO)(CO)C(=O)O` [3-Hydroxy-2-(hydroxymethyl)-2-methylpropanoic acid], greater than 90 µM; under `COc1cc2nc(N3CCN(C(=O)c4ccco4)CC3)nc(N)c2cc1OC` [Prazosin], 8.15 µM.
Still for that read-out and setting: the value for `CC(C)OC(=O)COc1ccc(Cl)cc1Cl` [2,4-D isopropyl ester] was greater than 90 µM; that for `CC(C)S` [Isopropyl mercaptan] was greater than 90 µM.
Same read-out and setting: the value for `CC(C)(c1ccc(Oc2ccc3c(c2)C(=O)OC3=O)cc1)c1ccc(Oc2ccc3c(c2)C(=O)OC3=O)cc1` [2,2-Bis(4-(3,4-dicarboxyphenoxy)phenyl)propane dianhydride] was greater than 90 µM; that for `O=C(N/N=C/c1ccccc1O)c1ccncc1` [Salinazid] was greater than 50 µM.
As for `C=C(C)C(=O)OCCCCCCCCCCCCCCCCCC` [Stearyl methacrylate], the CC50 at 24 h (AC50 (uM) modified / 1000) was greater than 20 µM.
`COCC(=O)N(c1c(C)cccc1C)N1CCOC1=O` [Oxadixyl] came in with a CC50 at 24 h (AC50 (uM) modified / 1000, Tox21_110001=Tox21_301853, viability, 1 nM T3 present, 24 h) greater than 90 µM.
For the compound `CC/C=C/CCCCCCCCCCOC(C)=O` [(E)-11-Tetradecen-1-ol acetate], under “AC50 (uM) modified / 1000”, the CC50 at 24 h was greater than 90 µM.
The same measure, in the same setting: the value for `CO/N=C(\C(=O)N[C@@H]1C(=O)N2C(C(=O)O)=C(CSc3nc(C)c(CC(=O)O)s3)CS[C@H]12)c1csc(N)n1` [Cefodizime sodium] was greater than 50 µM.
On the same count and under the same terms, under `CCCCN(CCO)CCO` [N-Butyldiethanolamine] stands greater than 90 µM; under `CCOC(=O)C1=C(C)NC(C)=C(C(=O)OC)C1c1cccc([N+](=O)[O-])c1` (stereo not drawn) [Nitrendipine], greater than 50 µM.
Same read-out and setting: the value for `N#C[C@@H]1CC(F)(F)CN1C(=O)CNC1CC2CCC(C1)N2c1ncccn1` (stereo partly drawn) [SSR162369] was greater than 90 µM.
The compound `C=CCc1ccc2c(c1)OCO2` [Safrole] showed a half-maximal cytotoxic concentration (CC50) at 24 h (AC50 (uM) modified / 1000, Tox21_110001=Tox21_202439, viability, 1 nM T3 present, 24 h) greater than 90 µM.
As for `CCCCCCCCCCCCCN1CC(C)OC(C)C1` (stereo not drawn) [Tridemorph], the half-maximal cytotoxic concentration (CC50) at 24 h (AC50 (uM) modified / 1000) was greater than 90 µM.
As for `COC(=O)[C@@H]1CC2=CC(=O)CC[C@]2(C)[C@@]23O[C@@H]2C[C@@]2(C)[C@@H](CC[C@@]24CCC(=O)O4)[C@H]13` [Eplerenone], the CC50 at 24 h (AC50 (uM) modified / 1000) was greater than 50 µM.
In the case of `C#Cc1cccc(Nc2ncnc3cc(OCCOC)c(OCCOC)cc23)c1` [Erlotinib], where the note is “AC50 (uM) modified / 1000”, the CC50 at 24 h was greater than 50 µM.
The same measure, in the same setting: the value for `CC(=O)[C@]1(O)Cc2c(O)c3c(c(O)c2[C@@H](O[C@H]2C[C@H](N)[C@H](O)[C@H](C)O2)C1)C(=O)c1ccccc1C3=O` [Idarubicin hydrochloride] was 0.162 µM; that for `Cc1ccc2c(c1)OCC(=O)CO2` [7-Methyl-2H-1,5-benzodioxepin-3(4H)-one] was greater than 90 µM.
In turn, `COc1ccc(C(=O)c2ccc(C)cc2)c(O)c1` [Mexenone] returned a 50% cytotoxic concentration (CC50) at 24 h (AC50 (uM) modified / 1000) greater than 90 µM.
Same read-out and setting: the value for `CCC(C)c1cc(C(C)(C)C)c(O)c(C(C)(C)C)c1` (stereo not drawn) [4-(Butan-2-yl)-2,6-di-tert-butylphenol] was greater than 90 µM; that for `CCC(C)(C)OC` [tert-Amyl methyl ether] was greater than 90 µM.
Compound `CC(C)(C)NCC(O)c1ccccc1Cl` (stereo not drawn) [Tulobuterol hydrochloride] yielded a 50% cytotoxic concentration (CC50) at 24 h (AC50 (uM) modified / 1000) greater than 50 µM.
On the same count and under the same terms, the value for `CC(=O)OCC(=O)NCCCOc1cccc(CN2CCCCC2)c1` [Roxatidine acetate hydrochloride] was greater than 50 µM; that for `CC(C)CN(C[C@@H](OP(=O)(O)O)[C@H](Cc1ccccc1)NC(=O)O[C@H]1CCOC1)S(=O)(=O)c1ccc(N)cc1` [Fosamprenavir calcium] was greater than 50 µM.
Still for that read-out and setting: the value for `Cc1ccc(C(=O)C(C)CN2CCCCC2)cc1` (stereo not drawn) [Tolperisone hydrochloride] was greater than 50 µM; that for `CCCCCCCCCCCCO` [1-Dodecanol] was greater than 90 µM.
Same read-out and setting: under `[O-][n+]1ccc(Cl)cc1` [4-Chloropyridine 1-oxide] stands greater than 100 µM; under `Brc1ccccc1` [Bromobenzene], greater than 90 µM.
Consider `C/C=C(\C)C(=O)OCc1ccccc1` [Benzyl tiglate], for which the CC50 at 24 h (AC50 (uM) modified / 1000) is greater than 90 µM.
Same read-out and setting: the value for `CCCCCC[C@@H](CCC)C(=O)O` [(2R)-2-Propyloctanoic acid] was greater than 50 µM.
Consider `CC(C)c1cccc(O)c1` [3-Isopropylphenol], for which the CC50 at 24 h (AC50 (uM) modified / 1000) is greater than 100 µM.
Still for that read-out and setting: under `Cc1cccc2sc3nncn3c12` [2,7,8,9-Tricyclazole] stands greater than 90 µM; under `CC[C@@H](N)CO` [(2R)-2-Aminobutan-1-ol], greater than 100 µM.
`C=CC(C)(CCC=C(C)C)OC(=O)CC(C)C` (stereo not drawn) [Linalyl isovalerate]: where the note is “AC50 (uM) modified / 1000”, the CC50 at 24 h is greater than 90 µM.
The same measure, in the same setting: the value for `Cc1cc(C)nc(NS(=O)(=O)c2ccc(N)cc2)n1` [Sulfamethazine] was greater than 90 µM; that for `Oc1c(Cl)cc(Cl)c2cccnc12` [Chloroxine] was 5.91 µM; that for `O=C1c2ccccc2C(=O)c2ccccc21` [Anthraquinone] was greater than 50 µM.
Same read-out and setting: under `CCNCCO` [2-(Ethylamino)ethanol] stands greater than 90 µM.
On to `O=C(O)C(F)(F)C(F)(F)C(F)(F)C(F)(F)C(F)(F)C(F)(F)C(F)(F)C(F)(F)C(F)(F)F` [Perfluorodecanoic acid], for which, under “AC50 (uM) modified / 1000, Tox21_110001=Tox21_300608, viability, 1 nM T3 present, 24 h”, the CC50 at 24 h was greater than 90 µM.
In turn, `CCCCc1ccccc1` [Butylbenzene] showed a CC50 at 24 h (AC50 (uM) modified / 1000) greater than 90 µM.
As to `CC(Cl)(Cl)[N+](=O)[O-]` [1,1-Dichloro-1-nitroethane], where the note is “AC50 (uM) modified / 1000, Tox21_110001=Tox21_201178, viability, 1 nM T3 present, 24 h”, the CC50 at 24 h was greater than 90 µM.
On to `BrCc1ccc(Br)cc1` [4-Bromobenzyl bromide], for which, for the setting “AC50 (uM) modified / 1000”, the cytotoxic concentration (CC50) at 24 h was greater than 90 µM.
Same read-out and setting: the value for `COc1cc2nc(N3CCN(C(=O)C4CCCO4)CC3)nc(N)c2cc1OC` (stereo not drawn) [Terazosin hydrochloride] was greater than 50 µM; that for `Oc1ccccc1Cc1ccccc1O` [2,2'-Bisphenol F] was greater than 90 µM; that for `CCCCCCCCCCCCOC(C)=O` [Dodecyl acetate] was greater than 90 µM.
The compound `CCCCCOc1ccc(C2SC(=O)NC2=O)cc1OCC` (stereo not drawn) [Risarestat] came in with a CC50 at 24 h (AC50 (uM) modified / 1000) greater than 50 µM.
On the same count and under the same terms, under `CCOC(=O)/C=C(C)/C=C/C=C(C)/C=C/c1c(C)cc(OC)c(C)c1C` [Etretinate] stands greater than 50 µM; under `CCCCCCCCCCCCCCCCCC(=O)O` [Triethanolamine stearate], greater than 90 µM.
Compound `CCC(=O)O[C@]1(c2ccccc2)CCN(C)C[C@H]1C` [Betaprodine] returned a 50% cytotoxic concentration (CC50) at 24 h (AC50 (uM) modified / 1000, Tox21_110001=Tox21_112620, viability, 1 nM T3 present, 24 h) greater than 50 µM.
As for `COc1ccc2c3c1O[C@H]1[C@@H](O)C=C[C@H]4[C@@H](C2)N(C)CC[C@@]341` [Codeine hydrochloride], the 50% cytotoxic concentration (CC50) at 24 h (AC50 (uM) modified / 1000) is greater than 90 µM.
On the same count and under the same terms, under `CC(C)=CCO` [3-Methyl-2-buten-1-ol] stands greater than 90 µM; under `NC(=S)NNC(N)=S` [2,5-Dithiobiurea], greater than 90 µM; under `CC(N)Cc1ccc(O)cc1` (stereo not drawn) [Hydroxyamphetamine hydrobromide], greater than 50 µM.
On the same count and under the same terms, under `CN(C)C(=O)NC1(c2ccccc2)CCN(CCC[C@]2(c3ccc(Cl)c(Cl)c3)CCCN(C(=O)c3ccccc3)C2)CC1` [SSR146977] stands 8.07 µM; under `C/C=C/C=C/CCCCCCCO` [Codlelure], 79.4 µM.
